How the values were obtained:
[1] = system: Human mature adipocytes
Method: Human pre-adipocytes (Lonza, Allendale, N.J.) were differentiated into mature adipocytes according to the supplier's instructions. Mature adipocytes in maintenance medium (Zen-Bio, Research Triangle Park, N.C.) were treated with different statins (Sigma, St. Louis, Mo.) for 7 days over a range of concentrations. Cell viability was measured at Day 1, 3, 5, and 7 using the ALAMARBLUE® assay (Invitrogen, Carlsbad, Calif.).

[2] = system: subcutaneous fat layer; conditions: 25 mg/kg intraperitoneal, 28 consecutive days (FIG. 6)
Method: Three untreated mice were used as reference animals. On Day 29, all animals were sacrificed and histopathological examination of the dorsal lumbar skin was performed. […] The severity of subcutaneous fat atrophy was scored on a scale ranging from normal (score of “0”) to severe (score of “4”).

[3] = system: subcutaneous adipose tissue; assay: Daily topical or intraperitoneal administration in mice, histopathology of mid-scapular skin; format: in vivo, Female BALB/cAnNCrl mice
Method: Female BALB/cAnNCrl mice were divided into five groups of three mice/group and seven groups of eight mice/group. Mice in Group 1 were age-matched, untreated pre-study reference animals, and mice in Group 2 were age-matched, untreated Day 29 reference animals. […] Mid-scapular skin was collected from each animal and histopathological examination was performed to determine the effects of the test articles on subcutaneous adipose deposition and skin thickness.

[4] = intraperitoneal 25 mg/kg, 28 days

Row | SMILES | dose dependence of cytotoxic effect [1] | fat layer atrophy in skin sections [2] | atrophy of subcutaneous adipose tissue [3, 4] | atrophy of subcutaneous adipose tissue ([3]; topical 0.5%, 28 days) | atrophy of subcutaneous adipose tissue ([3]; topical 2.5%, 7 days) | atrophy of subcutaneous adipose tissue ([3]; topical 2.5%, 28 days) | atrophy of subcutaneous adipose tissue ([3]; topical 0.5%, 7 days)
1 | CC(C)n1c(/C=C/C(O)CC(O)CC(=O)O)c(-c2ccc(F)cc2)c2ccccc21 (stereo not drawn) [fluvastatin] | dose-dependent cytotoxic effect | – | – | – | – | – | –
2 | CC[C@H](C)C(=O)O[C@H]1C[C@@H](C)C=C2C=C[C@H](C)[C@H](CC[C@@H]3C[C@@H](O)CC(=O)O3)[C@H]21 [lovastatin] | – | significant fat layer atrophy | present in skin of all mice | Only one mouse | present in all mice | present in all mice | –
3 | Cc1ccc(N(CC2=NCCN2)c2cccc(O)c2)cc1 [phentolamine] | – | – | present in skin of all mice | – | present in mice | in one mouse | present in mice
4 | CC(=O)[C@H]1CC[C@H]2[C@@H]3CC=C4C[C@@H](O)CC[C@]4(C)[C@H]3CC[C@]12C [pregnenolone] | – | – | present in skin of all mice | present in a one mouse | – | – | –

Reference: patent US9925170B2, “Methods of adipolysis and compositions useful therein” (priority 2015, dated 2018)
